According to patent US12115177B1, “Application of phenyl glucuronide in preparing drug for pre-warning of cancer via induced volatolomics” (Shanghai Jiao Tong University, priority 2023, dated 2024):

Assays:
β-glucuronidase = target: T1, β-glucuronidase (Escherichia coli, UniProt P05804); test: In vitro enzymatic reaction with β-glucuronidase, headspace SPME GC-MS detection of phenol; type: biochemical; conditions: pH 6.8 buffer, 37° C., 1 hour
T1 construct: purchased Sigma-Aldrich 8162
Method: A buffer is prepared with sterile water, the main components of the buffer include 75 millimoles per liter (mM) potassium phosphate (KH2PO4) and 1% bovine serum albumin (BSA), and 1 mole per liter (M) potassium hydroxide (KOH) is used to adjust the pH to 6.8. A phenyl-β-D-glucuronide solution is prepared with deionized water at a concentration of 0.75 grams per liter (g/L). The experiment is divided into a reactive group (also referred to as experimental group) and a control group, and 2.6 mL of deionized water, 2 mL of buffer and 1 mL of phenyl-β-D-glucuronide solution are successively added into two 20 mL injection bottles. After shaking well, they are stabilized in a water bath at 37° C. for 10 minutes. 2 microliters (μL) of β-glucuronidase glycerol solution (enzyme content: 500 U) are added in the bottle of the reactive group, and 2 uL of glycerol is added in the bottle of the control group. The covers are quickly tightened for reacting in a water bath at 37° C. for 1 hour. After the reaction, the aged extraction core is used for headspace solid-phase microextraction (also referred to as solid phase microextraction) for 30 minutes.

[1] = Stability verification of phenyl-β-D-glucuronide PBS solution (UPLC-MS and PDA detector); type: physicochemical; conditions: for peak area of phenyl-β-D-glucuronide: 400 μg/mL in PBS, PDA detector at 280 nm
Method: PBS is used as solvent to prepare a phenyl-β-D-glucuronide solution at a concentration of 400 micrograms per milliliter (μg/mL), 1 mL phenyl-β-D-glucuronide solution is added individually into 1.5-mL injection bottles and sealed. The four bottles of drug solutions are treated as follows: the bottle A is a ready-to-use drug immediately analyzed for composition using ultra performance liquid chromatography mass spectrometry (UPLC-MS); the bottle B is placed in a refrigerator at 4° C. for 2 weeks and then analyzed for composition using UPLC-MS; the bottle C is placed at room temperature (25° C.) for 1 week and then analyzed for composition using UPLC-MS; and the ready-to-use drug in bottle D is analyzed for composition using UPLC-MS and […] (PDA) detectors after heating for 7 hours at 38.5° C. in a water bath. In addition, a 20 parts per million (ppm) phenol standard solution is prepared for UPLC-MS and PDA analysis.
The results are shown in FIGS. 1A-1D, FIGS. 2A-2D, and FIGS. 3A-3E.
The main purpose of setting these three temperatures (i.e., room temperature, 4° C., and 38.5° C.) is to characterize that the drug can be stored in a 4° C. refrigerator or room temperature for a long time without decomposition or deterioration. From the peak area data, it can be seen that the drug can be stored in a 4° C. refrigerator for 2 weeks or at room temperature for 1 week, and the effective component of the drug, phenyl-β-D-glucuronide, is basically unchanged, so under the condition of qualified sealing conditions, the drug solution can be stored for a longer time, which has practical application potential.

[2] = system: MGC-803 subcutaneous gastric cancer model
Method: In the embodiment of the disclosure, the mice used are 6-week-old female BALB/c-nude mice, specific pathogen-free (SPF) grade, and the weight at purchase is 17±1.5 g. purchased from Shanghai Jessie Experimental Animal Co., Ltd. Mice are raised in cages in clean animal rooms. The cages are ventilated through a central control system. The indoor temperature is 25±2° C., and the feed and water are used after autoclaved.
After one week of adaptive feeding of the nude mice, the body weight is 20±2 g. During the feeding period, the growth and mental state of the mice are observed every day. The mice are randomly divided into two groups, namely a cancer group and a healthy group. In the cancer group, MGC-803 cells are used to construct a subcutaneous gastric cancer model. […] After the cells are adhered to the wall and grown to full size, they are digested with pancreatic enzyme, centrifuged, washed twice with PBS to remove residual serum, resuspended with PBS at a cell density of approximately about 5*10^7 cells/mL, and a cell inoculation volume of each mouse is 100 μL. The cell suspension used for inoculation should be inoculated within half an hour. During this period, the cells are placed on ice to reduce the metabolic activity of the cells to maintain cell activity. The tumor is implanted in the area with abundant blood supply in the middle and rear of the armpit, and the size of the tumor is measured weekly after the tumor is formed. Generally, the induced volatolomics experiment can be started at the third week after the implantation of the cells.
The exhaled breath extraction device enriches the volatile substances in the exhaled breath of mice to the extraction core of headspace solid-phase microextraction (SPME), which is used to analyze the composition and relative content of the exhaled breath of mice before and after drug administration. A large mouth glass container with a volume of about 400 mL is used, the bottle mouth is frosted, and the sealing gasket, silicone plug and fixing clip are used to ensure sealing. The device is cleaned and dried before use. The mice needed to extract exhaled breath components are put into the glass container. The whole device is placed in a constant temperature environment of 25° C., sealed for 1 hour, and supplemented with oxygen at an interval of 15 minutes by injecting 10 mL of pure oxygen (99.9%) through the silicone plug with a glass syringe. After sealing for 1 hour, a 75 μm Car/PDMS extraction core is inserted into the glass container through the silicone plug, and the black extraction core is extended for headspace solid-phase microextraction for 30 minutes. The extraction process is carried out at a constant temperature of 25° C., and the oxygen is supplemented regularly according to the above process.
The above 10 healthy mice and 10 tumor bearing mice are taken and injected with MGC-803 cells subcutaneously as Day 0 in the experiment.

[3] = system: gastric mucosal epithelial cells; conditions: 500 μg/mL, 40 hours incubation, CCK-8
Method: There is culture medium without inoculation of the cells with 100 μL per well. After incubation for 40 hours, the culture medium is discarded, 100 μL DMEM medium containing 10% cell counting kit 8 (CCK-8) is added to each well, and then incubated in the incubator for 2 hours. The value of optical density (OD) at 450 nm is monitored with a microplate reader for each well, and the cell viability is calculated based on the value of optical density.

T1 sequence (P05804 whole entry): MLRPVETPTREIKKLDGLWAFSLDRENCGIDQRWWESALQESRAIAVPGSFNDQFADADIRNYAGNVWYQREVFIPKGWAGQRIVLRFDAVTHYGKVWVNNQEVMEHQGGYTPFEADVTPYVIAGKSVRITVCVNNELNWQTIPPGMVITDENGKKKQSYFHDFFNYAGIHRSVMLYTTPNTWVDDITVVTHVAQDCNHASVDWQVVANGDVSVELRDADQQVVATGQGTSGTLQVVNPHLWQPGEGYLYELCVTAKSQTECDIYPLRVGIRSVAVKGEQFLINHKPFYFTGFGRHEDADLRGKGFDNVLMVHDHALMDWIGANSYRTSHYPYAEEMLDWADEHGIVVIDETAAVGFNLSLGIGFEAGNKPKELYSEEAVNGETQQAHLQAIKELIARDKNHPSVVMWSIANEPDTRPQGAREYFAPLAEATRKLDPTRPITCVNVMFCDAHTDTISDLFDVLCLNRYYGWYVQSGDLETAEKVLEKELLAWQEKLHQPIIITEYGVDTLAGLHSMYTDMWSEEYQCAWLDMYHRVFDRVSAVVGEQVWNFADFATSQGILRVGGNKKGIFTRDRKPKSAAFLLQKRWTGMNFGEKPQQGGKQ

Q: For `O=C(O)[C@H]1O[C@@H](Oc2ccccc2)[C@H](O)[C@@H](O)[C@@H]1O` [phenyl-β-D-glucuronide], which “decomposition of substrate without β-glucuronidase” value (β-glucuronidase; control group, glycerol instead of enzyme) is on record?
A: not decomposed

Q: And the “phenol production under the action of β-glucuronidase” value (β-glucuronidase; experimental group, 500 U enzyme)?
A: produces phenol

Q: What about the “peak area of phenyl-β-D-glucuronide” value ([1]; bottle A, newly prepared) of the same compound?
A: 2143

Q: And the “peak area of phenyl-β-D-glucuronide” value ([1]; bottle B, refrigerator at 4° C. for 2 weeks)?
A: 2142

Q: And the “peak area of phenyl-β-D-glucuronide” value ([1]; bottle C, room temperature (25° C.) for 1 week)?
A: 2144

Q: And the “peak area of phenyl-β-D-glucuronide” value ([1]; bottle D, heated 7 hours at 38.5° C. in a water bath)?
A: 2160

Q: What about the “storage time of PBS solution” value ([1]; 4° C. refrigerator) of the same compound?
A: at least 2 weeks

Q: What about the “new substances produced (other peaks) in the four bottles of solutions” value ([1]; all four storage conditions, UPLC-MS and PDA) of the same compound?
A: no other peaks of the new substances produced

Q: And the “peak of phenol in the four bottles of solutions compared with phenol standard” value ([1]; all four storage conditions, versus 20 ppm phenol standard)?
A: no peak of phenol

Q: And the “self-decomposition without the action of enzymes” value ([1]; normal body temperature range (generally less than 38.5° C.))?
A: will not decompose by itself

Q: What about the “storage time of PBS solution” value ([1]; room temperature) of the same compound?
A: at least 1 week

Q: And the “phenol level in exhaled breath, tumor bearing mouse group versus healthy mouse group” value ([2]; Day 0 (no solid tumors), 200 μg/kg intravenously, Mann-Whitney U-test)?
A: consistent without significant difference

Q: And the “phenol level in exhaled breath, tumor bearing mouse group versus healthy group” value ([2]; from the 10th day onwards (solid tumors about 100 mm^3), 200 μg/kg intravenously, p<0.01)?
A: significantly higher

Q: What about the “toxic or side effect in animal experiment” value ([2]; mouse, in vivo) of the same compound?
A: no toxic or side effect

Q: And the “fitted curve parameter A (tumor volume=A+B*phenol level in exhaled breath)” value ([2]; tumor bearing mice, FIG. 6)?
A: 2065116.64068±293370.09484

Q: What about the “fitted curve parameter B (tumor volume=A+B*phenol level in exhaled breath)” value ([2]; tumor bearing mice, FIG. 6) of the same compound?
A: 26167.51388±981.4

Q: And the cell viability [3]?
A: greater than 90%
